31 compounds from patent US8143296B2, “Thiazole-based compound and inhibitor of T-type calcium channel containing the same” (Korea Institute of Science and Technology, priority 2006, dated 2012) can be followed below.

Structures can show the parent of a compound that is named as a salt.

T1 sequence (O43497 whole entry): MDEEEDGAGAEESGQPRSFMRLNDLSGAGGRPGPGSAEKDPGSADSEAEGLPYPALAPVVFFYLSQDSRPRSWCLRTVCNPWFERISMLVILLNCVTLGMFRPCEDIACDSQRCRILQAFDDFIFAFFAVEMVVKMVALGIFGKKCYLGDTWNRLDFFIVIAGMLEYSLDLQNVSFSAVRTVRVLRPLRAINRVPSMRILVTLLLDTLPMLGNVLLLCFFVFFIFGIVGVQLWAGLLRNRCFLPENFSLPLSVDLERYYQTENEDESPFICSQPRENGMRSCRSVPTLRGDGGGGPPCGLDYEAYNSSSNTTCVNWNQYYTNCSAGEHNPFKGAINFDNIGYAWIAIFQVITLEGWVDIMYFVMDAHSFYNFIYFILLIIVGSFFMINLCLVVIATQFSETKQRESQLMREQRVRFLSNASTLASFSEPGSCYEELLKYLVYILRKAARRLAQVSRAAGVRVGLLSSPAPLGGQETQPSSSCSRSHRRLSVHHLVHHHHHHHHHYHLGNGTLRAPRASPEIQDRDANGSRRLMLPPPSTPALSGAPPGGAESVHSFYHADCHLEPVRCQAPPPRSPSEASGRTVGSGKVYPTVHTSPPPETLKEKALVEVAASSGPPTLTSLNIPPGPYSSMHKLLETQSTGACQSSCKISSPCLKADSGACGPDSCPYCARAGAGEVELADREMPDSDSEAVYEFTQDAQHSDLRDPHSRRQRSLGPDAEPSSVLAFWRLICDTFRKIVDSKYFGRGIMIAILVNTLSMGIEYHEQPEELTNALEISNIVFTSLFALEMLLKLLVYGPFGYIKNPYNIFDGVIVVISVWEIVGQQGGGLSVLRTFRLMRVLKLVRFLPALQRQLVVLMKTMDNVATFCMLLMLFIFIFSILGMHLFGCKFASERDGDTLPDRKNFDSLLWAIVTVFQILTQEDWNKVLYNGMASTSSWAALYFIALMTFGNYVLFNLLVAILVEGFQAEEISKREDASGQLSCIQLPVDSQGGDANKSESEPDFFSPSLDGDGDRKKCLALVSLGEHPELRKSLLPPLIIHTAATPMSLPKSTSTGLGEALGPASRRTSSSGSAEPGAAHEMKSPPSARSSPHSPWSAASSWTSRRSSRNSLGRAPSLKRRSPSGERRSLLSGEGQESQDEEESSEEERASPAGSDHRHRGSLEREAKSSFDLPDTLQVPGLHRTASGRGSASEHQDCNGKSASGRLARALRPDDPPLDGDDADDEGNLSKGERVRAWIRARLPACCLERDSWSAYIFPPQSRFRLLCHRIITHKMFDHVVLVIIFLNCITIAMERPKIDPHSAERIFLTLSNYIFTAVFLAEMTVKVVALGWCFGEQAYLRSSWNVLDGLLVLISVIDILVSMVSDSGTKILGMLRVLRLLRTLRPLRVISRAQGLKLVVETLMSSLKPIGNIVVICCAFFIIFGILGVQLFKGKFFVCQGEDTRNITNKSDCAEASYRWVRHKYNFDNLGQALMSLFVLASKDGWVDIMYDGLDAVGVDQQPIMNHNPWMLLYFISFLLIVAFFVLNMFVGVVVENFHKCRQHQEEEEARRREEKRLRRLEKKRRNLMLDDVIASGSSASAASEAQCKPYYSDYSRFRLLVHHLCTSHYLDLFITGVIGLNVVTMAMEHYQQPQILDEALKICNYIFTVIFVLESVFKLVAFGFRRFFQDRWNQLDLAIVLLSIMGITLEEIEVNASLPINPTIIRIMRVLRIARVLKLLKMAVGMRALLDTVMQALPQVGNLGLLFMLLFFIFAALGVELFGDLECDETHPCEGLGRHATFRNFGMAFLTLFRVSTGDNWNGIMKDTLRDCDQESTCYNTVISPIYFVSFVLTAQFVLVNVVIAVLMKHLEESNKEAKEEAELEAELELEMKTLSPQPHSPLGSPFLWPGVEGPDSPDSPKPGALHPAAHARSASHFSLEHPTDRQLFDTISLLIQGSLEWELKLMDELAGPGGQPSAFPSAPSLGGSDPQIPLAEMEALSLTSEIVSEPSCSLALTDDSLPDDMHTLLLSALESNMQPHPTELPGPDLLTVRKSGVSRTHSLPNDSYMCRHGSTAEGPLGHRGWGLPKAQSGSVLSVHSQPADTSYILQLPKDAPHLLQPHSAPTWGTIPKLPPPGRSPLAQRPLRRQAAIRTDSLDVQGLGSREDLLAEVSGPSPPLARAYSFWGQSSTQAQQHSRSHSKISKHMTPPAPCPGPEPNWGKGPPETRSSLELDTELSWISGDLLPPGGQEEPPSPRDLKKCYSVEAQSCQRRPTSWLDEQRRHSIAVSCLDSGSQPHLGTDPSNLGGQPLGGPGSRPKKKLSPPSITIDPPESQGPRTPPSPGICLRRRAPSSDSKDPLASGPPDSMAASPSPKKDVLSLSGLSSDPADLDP

System in the first data set: not given
Assay: not given
Details: not given
For the compound `Cl.NC(N)=Nc1nc(CC(=O)Nc2ccc(Br)cc2)cs1` [KHG23178, N-(4-bromophenyl)-2-(2-(diaminomethyleneamino)thiazole-4-yl)acetamide hydrochloride], the melting point (as a rule, the temperature, or range, at which the solid turns liquid) was in the range of 246.4 to 247 °C.
`Cc1ccc(CNC(=O)Cc2csc(N=C(N)N)n2)cc1.Cl` [KHG23187, 2-(2-(diaminomethyleneamino)thiazole-4-yl)-N-(4-methylbenzyl)acetamide hydrochloride] had a melting point of 187.9 to 188.6 °C.
On the same count and under the same terms, as for `CCOc1ccc(NC(=O)Cc2csc(N=C(N)N)n2)cc1.Cl` [KHG23192, N-(4-ethoxyphenyl)-2-(2-(diaminomethyleneamino)thiazole-4-yl)acetamide hydrochloride], the figure is 242.1 to 242.6 °C.
In turn, `Cc1nc(N=C(N)N)sc1Cc1ccc(F)cc1.Cl` had a melting point of 245.6 °C.

The next data set addresses T1, α1G T-type calcium channel (Homo sapiens, UniProt O43497).
T1 construct: host or cells: HEK293
As to the kind of experiment: Assay for % inhibiting activity against T-type calcium channel using FDSS6000. The format is cell-based. The conditions noted are these: 10 μM; HEK293 cells expressing α1G; Table 3 (Chemical Formula 2 series); hydrochloride. The method, then:
In the present invention, in order to search an efficient inhibitor against T-type calcium channel, a primary assay for T-type calcium channel inhibiting activity was conducted by a high-efficient assay using FDSS6000, wherein mammal HEK293 cell lines (originated from human kidney carcinoma cells) which specifically expresses α1G of T-type calcium channel was used for primary assay. Through the primary assay, compounds which show meaningful inhibition effects were selected. The selected compounds were used in a second assay for T-type calcium channel inhibiting activity using electrophysiological whole cell patch clamp method, wherein mammal HEK293 cell lines (originated from human kidney carcinoma cells) which specifically expresses α1G of T-type calcium channel was used for the second assay.
At 12-24 hours before being used for this assay, cells of HEK293 cell line (α1G cell line: KCTC 10519BP, Korean Collection for Type Cultures), which stably express α1G T-type calcium channel and Kir2.1, were sub-cultured in a poly-L-lysine treated 96-well plate with the density of 4×10^4 per a well using a 96-well cell dispenser (Titertek). On the of assay, the 96-well plate to which the cells were attached were washed three times with HEPES buffer solution (150 mM of NaCl, 5 mM of KCl, 1 mM of MgCl2, 2 mM of CaCl2, 10 mM of HEPES, 10 mM of glucose; pH 7.4) using a 96-well plate automatic washing device (Bio Tek), then reacted with HEPES buffer solution containing 5 μM fluo-3/AM and 0.001% Pluronic F-127 under room temperature for 1 hour, to label with fluorescent dye, and then further washed two times with HEPES buffer solution.
Thereafter, at 10 minutes before the measurement using device FDSS6000, a washing with HEPES buffer solution containing 10 mM CaCl2 was conducted once more, and the final volume was adjusted to 81 μl. Besides the above 96-well plate containing the cells, additional two drug 96-well plates were provided, wherein the 96-well plates contain inhibiting drug and KCl (final concentration: 75 mM) for activating T-type calcium channel, respectively. Since most of cell-based HTS devices are equipped with a liquid application system for injection of drug, but have no liquid sucking system, the inhibiting drug to be tested and KCl were respectively provided at the five-times higher concentration in 10 mM CaCl2 HEPES buffer solution at the amount of 27 μl, diluted five-times at the final cell plate volume of 135 μl, and then used in this test. The concrete method of measurement using FDSS6000 was as follows: After recording the reference value of 20 seconds, the change of intracellular Ca^2+ concentration which induced by treatment of the inhibiting drug to be tested for 75 seconds followed by administration of KCl was measured, wherein the percentage (%) inhibition effect of the test drug, through estimating the area of ratio value of 340/380 in the control without treatment of the test drug as 100%. As a reference drug, mibefradil was used.
For accurate calcium-imagination, the light source of 4 xenon lamps in FDSS6000 were radiated to make the cells exposed selectively to the excitation wavelength (340 nm and 380 nm) by computer-controlled filter wheel. Data was obtained at interval of each 1.23 second. The emitter fluorescence light inflowed through long-pass filter was obtained as an average 340/380 ratio value for each well in the 96-wells by using CCD camera and digital fluorescence analyzer in FDSS6000. All image data and analyses were obtained by using FDSS6000-exclusive program provide from Hamamatsu Photonics.
Consider `COc1ccc(NC(=O)Cc2csc(N=C(N)N)n2)cc1F.Cl` [KHG23399, 2-(2-(diaminomethyleneamino)thiazole-4-yl)-N-(3-fluoro-4-methoxyphenyl)acetamide hydrochloride], for which the “% Inhibition [α1G, 10 μM) using FDSS6000” value is reported as 3.4%.
Same read-out and setting: the same measure for `CCCCCCc1ccc(NC(=O)Cc2csc(N=C(N)N)n2)cc1.Cl` [KHG23386, 2-(2-(diaminomethyleneamino)thiazole-4-yl)-N-(4-hexylphenyl)acetamide hydrochloride]: 4.5%; for `Cc1ccc(NC(=O)Cc2csc(N=C(N)N)n2)cc1Cl.Cl` [KHG23397, N-(3-chloro-4-methylphenyl)-2-(2-(diaminomethyleneamino)thiazole-4-yl)acetamide hydrochloride]: 14.2%.

Still in this data set, the particulars now being: 10 μM; HEK293 cells expressing α1G; Table 4 (Chemical Formula 3 series); hydrobromide.
For `Br.NC(N)=Nc1nc(-c2ccc([N+](=O)[O-])cc2)cs1` [KHG24375, 2-(4-(4-nitrophenyl)thiazole-2-yl)guanidine hydrobromide], the “% Inhibition [α1G, 10 μM) using FDSS6000” value is 19.90%.

Staying with this data set, now noted: HEK293, 10 μM; HEK293 cells expressing α1G; Table 3 (Chemical Formula 2 series).
As to `NC(N)=Nc1nc(CC(=O)Nc2cc(C(F)(F)F)cc(C(F)(F)F)c2)cs1` [KHG23394, N-(3,5-bis(trifluoromethyl)phenyl)-2-(2-(diaminomethyleneamino)thiazole-4-yl)acetamide hydrochloride], the inhibition (in general, the share of the control response that was lost under treatment) at 10 µM was 41.5%.
Still for that read-out and setting: the same measure for `COc1ccc(NC(=O)Cc2csc(N=C(N)N)n2)c(C)c1` [KHG23393, 2-(2-(diaminomethyleneamino)thiazole-4-yl)-N-(4-methoxy-2-methylphenyl)acetamide hydrochloride]: 3.8%.
Still for that read-out and setting: the same measure for `Cl.NC(N)=Nc1nc(CC(=O)Nc2ccc(Br)cc2)cs1` [KHG23178, N-(4-bromophenyl)-2-(2-(diaminomethyleneamino)thiazole-4-yl)acetamide hydrochloride]: 34.5%; for `NC(N)=Nc1nc(CC(=O)Nc2ccc(Oc3ccccc3)cc2)cs1` [KHG23389, 2-(2-(diaminomethyleneamino)thiazole-4-yl)-N-(4-phenoxyphenyl)acetamide hydrochloride]: 25.4%.
The same measure, in the same setting: as for `Cc1ccc(CNC(=O)Cc2csc(N=C(N)N)n2)cc1.Cl` [KHG23187, 2-(2-(diaminomethyleneamino)thiazole-4-yl)-N-(4-methylbenzyl)acetamide hydrochloride], the figure is 21.4%; as for `CCCCOc1ccc(NC(=O)Cc2csc(N=C(N)N)n2)cc1` [KHG23384, N-(4-butoxyphenyl)-2-(2-(diaminomethyleneamino)thiazole-4-yl)acetamide hydrochloride], 6.1%; as for `CCOc1ccc(NC(=O)Cc2csc(N=C(N)N)n2)cc1.Cl` [KHG23192, N-(4-ethoxyphenyl)-2-(2-(diaminomethyleneamino)thiazole-4-yl)acetamide hydrochloride], 16.8%.
As to `NC(N)=Nc1nc(CC(=O)NCCc2ccc(F)cc2)cs1` [KHG23190, 2-(2-(diaminomethyleneamino)thiazole-4-yl)-N-(4-fluorophenethyl)acetamide hydrochloride], the inhibition at 10 µM amounted to 21%.
In the case of `NC(N)=Nc1nc(CC(=O)Nc2ccc(F)c(F)c2F)cs1` [KHG23392, 2-(2-(diaminomethyleneamino)thiazole-4-yl)-N-(2,3,4-trifluorophenyl)acetamide hydrochloride], the inhibition at 10 µM worked out at 22.7%.
Same read-out and setting: the same measure for `N#CCc1ccc(NC(=O)Cc2csc(N=C(N)N)n2)cc1` [KHG23387, N-(4-(cyanomethyl)phenyl)-2-(2-(diaminomethyleneamino)thiazole-4-yl)acetamide hydrochloride]: 3.2%; for `CCCCCCCCCCc1ccc(NC(=O)Cc2csc(N=C(N)N)n2)cc1` [KHG23381, N-(4-decylphenyl)-2-(2-(diaminomethyleneamino)thiazole-4-yl)acetamide hydrochloride]: 6.2%; for `CCCCCCc1ccc(NC(=O)Cc2csc(N=C(N)N)n2)cc1` [KHG23383, 2-(2-(diaminomethyleneamino)thiazole-4-yl)-N-(4-hexylphenyl)acetamide hydrochloride]: 5.7%.
As to `NC(N)=Nc1nc(CC(=O)Nc2cc([N+](=O)[O-])ccc2F)cs1` [KHG23168, 2-(2-(diaminomethyleneamino)thiazole-4-yl)-N-(2-fluoro-5-nitrophenyl)acetamide hydrochloride], the inhibition at 10 µM turned out to be 21.6%.
In the case of `CCOC(=O)c1ccc(NC(=O)Cc2csc(N=C(N)N)n2)cc1` [KHG23385, ethyl 4-(2-(2-(diaminomethyleneamino)thiazole-4-yl)acetamido)benzoate hydrochloride], the inhibition at 10 µM worked out at 5.9%.
On the same count and under the same terms, as for `NC(N)=Nc1nc(CC(=O)Nc2c(Cl)c(Cl)cc(Cl)c2Cl)cs1` [KHG23395, 2-(2-(diaminomethyleneamino)thiazole-4-yl)-N-(2,3,5,6-tetrachlorophenyl)acetamide hydrochloride], the figure is 2.7%; as for `NC(N)=Nc1nc(CC(=O)Nc2c(Cl)cc(OC(F)(F)F)cc2Cl)cs1` [KHG23398, 2-(2-(diaminomethyleneamino)thiazole-4-yl)-N-(2,6-dichloro-4-(trifluoromethoxy)phenyl)acetamide hydrochloride], 0.2%; as for `NC(N)=Nc1nc(CC(=O)Nc2c(Cl)cc(C(F)(F)F)cc2Cl)cs1` [KHG23391, 2-(2-(diaminomethyleneamino)thiazole-4-yl)-N-(2,6-dichloro-4-(trifluoromethyl)phenyl)acetamide hydrochloride], 0.8%.
The same measure, in the same setting: as for `CC(C)c1ccc(NC(=O)Cc2csc(N=C(N)N)n2)cc1` [KHG23379, 2-(2-(diaminomethyleneamino)thiazole-4-yl)-N-(4-isopropylphenyl)acetamide hydrochloride], the figure is 14.7%; as for `CCOC(=O)c1cccc(NC(=O)Cc2csc(N=C(N)N)n2)c1` [KHG23382, ethyl 3-(2-(2-(diaminomethyleneamino)thiazole-4-yl)acetamido)benzoate hydrochloride], 24%; as for `NC(N)=Nc1nc(CC(=O)Nc2ccc([N+](=O)[O-])cc2)cs1` [KHG23380, 2-(2-(diaminomethyleneamino)thiazole-4-yl)-N-(4-nitrophenyl)acetamide hydrochloride], 11.4%.

The same data set, now with this note: HEK293, 10 μM; HEK293 cells expressing α1G; Table 4 (Chemical Formula 3 series).
Regarding `COc1ccc(-c2csc(N=C(N)N)n2)cc1` [KHG24041, 2-(4-(4-methoxyphenyl)thiazole-2-yl)guanidine hydrobromide], the inhibition at 10 µM stood at 13.3%.
Turning to `NC(N)=Nc1nc(-c2ccc([N+](=O)[O-])cc2)cs1` [KHG24389, 2-(4-(4-nitrophenyl)thiazole-2-yl)guanidine hydrobromide], the inhibition at 10 µM was determined as 21.9%.
Turning to `Cc1ccc(-c2csc(N=C(N)N)n2)cc1` [KHG24040, 2-(4-p-tolylthiazole-2-yl)guanidine hydrobromide], the inhibition at 10 µM stood at 16.2%.
On the same count and under the same terms, the same measure for `NC(N)=Nc1nc(-c2ccc3[nH]c(=O)oc3c2)cs1` [KHG24022, 2-(4-(2-oxo-2,3-dihydrobenzo[d]oxazole-6-yl)thiazole-2-yl)guanidine hydrochloride]: 10.1%.
Take `NC(N)=Nc1nc(-c2ccc3ccccc3c2)cs1` [KHG24039, 2-(4-(naphthalene-2-yl)thiazole-2-yl)guanidine hydrochloride]: the inhibition at 10 µM was determined as 21.9%.
Still for that read-out and setting: as for `NC(N)=Nc1nc(-c2cc(C(F)(F)F)cc(C(F)(F)F)c2)cs1` [KHG24392, 2-(4-(3,5-bis(trifluoromethyl)phenyl)thiazole-2-yl)guanidine hydrobromide], the figure is 12.9%.
